US20170369444A1, “INHIBITORS OF HISTONE DEMETHYLASES” (Gilead Sciences, Inc., priority 2014, published 2017)

Columns and labels:
Assay type in all cases: biochemical
KDM2B (FBXL10) = biological target: T1, KDM2B (FBXL10) (Homo sapiens, UniProt Q8NHM5); experiment: Histone lysine demethylase AlphaLISA assay, KDM2B; conditions: in vitro enzyme, read-out: KDM2B IC50 (HDME Inhibition)
T1 construct: 1-650; purchased BPS Bioscience, US; host or cells: Bac (baculovirus/insect cells)
T1 sequence (Q8NHM5 1-650): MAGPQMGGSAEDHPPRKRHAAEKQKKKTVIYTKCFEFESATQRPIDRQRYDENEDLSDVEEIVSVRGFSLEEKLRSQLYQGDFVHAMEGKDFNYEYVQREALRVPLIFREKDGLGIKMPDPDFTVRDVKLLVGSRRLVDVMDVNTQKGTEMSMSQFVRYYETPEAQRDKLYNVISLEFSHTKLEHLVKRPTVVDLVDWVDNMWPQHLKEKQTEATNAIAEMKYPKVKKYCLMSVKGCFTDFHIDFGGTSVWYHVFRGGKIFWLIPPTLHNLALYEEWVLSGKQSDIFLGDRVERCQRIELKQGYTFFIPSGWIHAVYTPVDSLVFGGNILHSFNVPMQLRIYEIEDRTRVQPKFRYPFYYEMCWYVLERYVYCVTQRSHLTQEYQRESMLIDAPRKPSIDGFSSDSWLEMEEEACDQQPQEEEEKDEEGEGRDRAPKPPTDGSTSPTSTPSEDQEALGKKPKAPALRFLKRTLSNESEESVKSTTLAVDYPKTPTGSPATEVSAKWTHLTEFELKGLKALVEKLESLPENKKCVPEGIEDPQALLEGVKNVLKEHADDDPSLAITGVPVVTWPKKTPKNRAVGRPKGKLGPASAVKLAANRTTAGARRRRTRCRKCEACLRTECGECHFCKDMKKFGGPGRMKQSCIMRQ
Method: (§1) Histone lysine demethylase AlphaLISA assays are performed to determine IC50 values. […] Assays are performed analogously to the protocol described by PerkinElmer (Roy et al. PerkinElmer Technical Note: AlphaLISA #12, April 2011).
(§2) Assays are performed analogously to the protocol described by PerkinElmer (Roy et al. PerkinElmer Technical Note: AlphaLISA #12, April 2011).
(§3) Enzymes (final assay concentration 0.1-2.5 nM) are dissolved in enzyme buffer and incubated for 10 min before 5 μL is added to 5 μL 3% DMSO solutions of compounds in enzyme buffer, incubated for another 10 minutes, before 5 μL substrate solution is added and the reaction mixture is incubated at room temperature. 10 μL acceptor beads, suspended Epigenetic Buffer (Perkin Elmer AL008) from stock, are added and the suspension is incubated in the dark at room temperature, before 10 μL suspension of streptavidin donor beads (Perkin Elmer 6760002) in Epigenetic Buffer is added. After incubation at room temperature in the dark the plates are read.
(§4) Substrate solution: Substrate (final assay concentration 50-200 nM), 50 mM Hepes (pH 7.4-8.0), 0.003% Tween-20, 0.1% BS, 25 μM L-Asc, 10 μM α-KG. Enzyme Buffer: 50 mM Hepes (pH 7.4-8.0), 0.003% Tween-20, 0.1% BSA; 5 μM (NH4)2Fe(SO4)2

PHF8 (KDM7) = PHF8 (KDM7) (Homo sapiens, UniProt Q9UPP1); experiment: Histone lysine demethylase AlphaLISA assay, PHF8; conditions: in vitro enzyme, read-out: PHF8 IC50 (HDME Inhibition)
Method: as §1, §2, §3, §4

KDM6A (UTX) = biological target: T2, KDM6A (UTX) (Homo sapiens, UniProt O15550); experiment: Histone lysine demethylase AlphaLISA assay, KDM6A; conditions: in vitro enzyme, read-out: KDM6A IC50 (HDME Inhibition)
T2 construct: 919-1401; host or cells: E. coli
Method: as §1, §2, §3, §4

KDM5B (PLU-1) = biological target: T3, KDM5B (PLU-1) (Homo sapiens, UniProt Q9UGL1); experiment: Histone lysine demethylase AlphaLISA assay, KDM5B; conditions: in vitro enzyme, read-out: KDM5B IC50 (HDME Inhibition)
T3 construct: 1-809; host or cells: E. coli
T3 sequence (Q9UGL1 1-809): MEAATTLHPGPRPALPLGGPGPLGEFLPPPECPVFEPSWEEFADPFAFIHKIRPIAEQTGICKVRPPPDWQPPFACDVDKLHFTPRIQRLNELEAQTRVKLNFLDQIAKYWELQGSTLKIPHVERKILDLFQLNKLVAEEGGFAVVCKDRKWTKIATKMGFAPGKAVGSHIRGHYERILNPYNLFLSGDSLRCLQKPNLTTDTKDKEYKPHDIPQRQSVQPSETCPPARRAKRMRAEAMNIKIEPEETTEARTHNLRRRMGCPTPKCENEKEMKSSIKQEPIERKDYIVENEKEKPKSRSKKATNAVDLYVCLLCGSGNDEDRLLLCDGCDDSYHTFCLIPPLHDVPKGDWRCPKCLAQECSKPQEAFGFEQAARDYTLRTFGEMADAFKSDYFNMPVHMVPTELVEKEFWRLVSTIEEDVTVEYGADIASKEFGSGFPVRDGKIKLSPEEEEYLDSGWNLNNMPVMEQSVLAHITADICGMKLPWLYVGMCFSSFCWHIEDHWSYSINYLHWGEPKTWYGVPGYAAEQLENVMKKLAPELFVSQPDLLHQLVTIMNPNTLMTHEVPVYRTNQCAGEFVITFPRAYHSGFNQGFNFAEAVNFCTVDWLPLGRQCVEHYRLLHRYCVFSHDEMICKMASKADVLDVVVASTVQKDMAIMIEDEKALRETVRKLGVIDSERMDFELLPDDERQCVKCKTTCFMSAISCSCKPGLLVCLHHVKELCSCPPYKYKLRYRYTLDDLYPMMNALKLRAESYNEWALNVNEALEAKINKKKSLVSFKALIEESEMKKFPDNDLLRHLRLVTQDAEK
Method: as §1, §2, §3, §4

PHF8 (KDM7), sequence (Q9UPP1 whole entry): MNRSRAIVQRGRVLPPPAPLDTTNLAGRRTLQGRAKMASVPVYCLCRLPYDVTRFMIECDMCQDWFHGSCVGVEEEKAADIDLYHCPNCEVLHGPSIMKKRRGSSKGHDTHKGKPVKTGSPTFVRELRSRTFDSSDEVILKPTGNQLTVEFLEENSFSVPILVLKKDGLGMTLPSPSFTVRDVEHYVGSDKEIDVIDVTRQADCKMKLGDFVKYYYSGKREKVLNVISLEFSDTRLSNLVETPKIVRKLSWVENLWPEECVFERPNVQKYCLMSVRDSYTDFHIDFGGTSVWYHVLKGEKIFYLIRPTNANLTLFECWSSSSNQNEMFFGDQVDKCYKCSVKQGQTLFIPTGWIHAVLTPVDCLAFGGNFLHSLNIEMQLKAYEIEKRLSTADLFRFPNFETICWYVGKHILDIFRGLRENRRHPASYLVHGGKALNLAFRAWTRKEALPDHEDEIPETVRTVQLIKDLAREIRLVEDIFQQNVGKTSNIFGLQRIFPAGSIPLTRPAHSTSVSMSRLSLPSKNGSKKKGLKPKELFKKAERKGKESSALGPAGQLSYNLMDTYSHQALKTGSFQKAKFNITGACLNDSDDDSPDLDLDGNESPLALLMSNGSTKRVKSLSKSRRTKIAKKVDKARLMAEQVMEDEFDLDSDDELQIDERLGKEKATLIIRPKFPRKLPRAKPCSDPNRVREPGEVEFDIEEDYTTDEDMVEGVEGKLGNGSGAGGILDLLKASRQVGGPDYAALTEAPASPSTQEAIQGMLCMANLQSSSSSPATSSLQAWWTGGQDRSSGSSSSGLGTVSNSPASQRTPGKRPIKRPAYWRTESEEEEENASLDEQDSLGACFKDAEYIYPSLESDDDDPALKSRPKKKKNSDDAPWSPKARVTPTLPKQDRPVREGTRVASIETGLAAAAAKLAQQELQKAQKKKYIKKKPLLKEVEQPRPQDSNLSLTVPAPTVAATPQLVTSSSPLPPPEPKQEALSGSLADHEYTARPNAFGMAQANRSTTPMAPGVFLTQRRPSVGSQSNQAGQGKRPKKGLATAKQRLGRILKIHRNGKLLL
T2 sequence (O15550 919-1401): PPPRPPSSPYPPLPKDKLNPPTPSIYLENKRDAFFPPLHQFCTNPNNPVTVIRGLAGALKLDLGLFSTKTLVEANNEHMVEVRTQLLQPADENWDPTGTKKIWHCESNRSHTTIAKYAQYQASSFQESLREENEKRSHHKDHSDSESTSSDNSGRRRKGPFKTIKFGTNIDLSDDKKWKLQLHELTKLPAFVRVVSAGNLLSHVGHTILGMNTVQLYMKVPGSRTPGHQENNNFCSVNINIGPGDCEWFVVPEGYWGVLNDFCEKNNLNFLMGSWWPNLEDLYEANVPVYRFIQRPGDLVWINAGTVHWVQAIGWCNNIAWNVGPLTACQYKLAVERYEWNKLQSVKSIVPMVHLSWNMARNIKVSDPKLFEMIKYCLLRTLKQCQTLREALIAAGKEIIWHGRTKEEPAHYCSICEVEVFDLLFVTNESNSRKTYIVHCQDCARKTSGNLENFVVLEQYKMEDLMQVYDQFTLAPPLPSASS

Row | IC50 (KDM2B (FBXL10)) | IC50 (PHF8 (KDM7)) | IC50 (KDM6A (UTX)) | IC50 (KDM5B (PLU-1)) | Compound
1 | 250 to 2500 nM | 250 to 2500 nM | > 2500 nM |  | CC(N[C@@H](C)C(=O)NCc1ccccc1O)c1cc(C(=O)O)ccn1 (stereo partly drawn) [Compound 6, 2-(1-{[(1S)-1-{[(2-hydroxyphenyl)methyl]carbamoyl}ethyl]amino}ethyl)pyridine-4-carboxylic acid]
2 | 250 to 2500 nM | 250 to 2500 nM | > 2500 nM |  | CC(C)C[C@H](NCc1cc(C(=O)O)ccn1)C(=O)NCc1ccccc1NC(=O)C1CC1C (stereo partly drawn) [Compound 7, 2-({[(1S)-3-methyl-1-({[2-(2-methylcyclopropane-amido)phenyl]methyl}carbamoyl)butyl]amino}methyl)pyridine-4-carboxylic acid]
3 | 250 to 2500 nM |  | > 2500 nM | 250 to 2500 nM | C=CCN(CC=C)C(=O)[C@@H](CC(=O)NCC1CC1)NCc1cc(C(=O)O)ccn1 [Compound 18, 2-({[(1R)-1-[bis(prop-2-en-1-yl)carbamoyl]-2-[(cyclopropylmethyl)carbamoyl]ethyl]amino}methyl)pyridine-4-carboxylic acid]
4 | 250 to 2500 nM | 250 to 2500 nM | > 2500 nM |  | CC(N[C@@H](C)C(=O)NCc1ccccc1CO)c1cc(C(=O)O)ccn1 (stereo partly drawn) [Compound 19, 2-(1-{[(1S)-1-({[2-(hydroxymethyl)phenyl]methyl}carbamoyl)ethyl]amino}ethyl) pyridine-4-carboxylic acid]
5 | 250 to 2500 nM |  | > 2500 nM | > 2500 nM | C=CCN(CC=C)C(=O)[C@@H](CC(=O)NCCCC)NCc1cc(C(=O)O)ccn1 [Compound 24, 2-({[(1R)-1-[bis(prop-2-en-1-yl)carbamoyl]-2-(butylcarbamoyl)ethyl]amino}methyl)pyridine-4-carboxylic acid]
6 | 250 to 2500 nM | 250 to 2500 nM |  | 250 to 2500 nM | C=CCN(CC=C)C(=O)[C@@H](CCC(N)=O)NCc1cc(C(=O)O)ccn1 [Compound 25, 2-({[(1R)-1-[bis(prop-2-en-1-yl)carbamoyl]-3-carbamoylpropyl]amino}methyl)pyridine-4-carboxylic acid]
7 | 250 to 2500 nM | 250 to 2500 nM | > 2500 nM |  | CC(N[C@@H](C)c1nccs1)c1cc(C(=O)O)ccn1 (stereo partly drawn) [Compound 28, 2-(1-{[(1S)-1-(1,3-thiazol-2-yl)ethyl]amino}ethyl) pyridine-4-carboxylic acid]
8 | 250 to 2500 nM | 250 to 2500 nM | > 2500 nM |  | CC(N[C@@H](C)C(=O)NCc1ccccc1)c1cc(C(=O)O)ccn1 (stereo partly drawn) [Compound 36, 2-(1-{[(1S)-1-(benzylcarbamoyl)ethyl]amino}ethyl)pyridine-4-carboxylic acid]
9 | 250 to 2500 nM | 250 to 2500 nM | > 2500 nM |  | CC(C)C[C@H](NCc1cc(C(=O)O)ccn1)C(=O)NCC1CCS(=O)(=O)C1 (stereo partly drawn) [Compound 38, 2-({[(1S)-1-{[(1,1-dioxo-1-thiolan-3-yl)methyl]carbamoyl}-3-methylbutyl]amino}methyl)pyridine-4-carboxylic acid]
10 | 250 to 2500 nM | 250 to 2500 nM |  |  | CCCC(NCC(=O)N1CCCCC1)c1cc(C(=O)O)ccn1 (stereo not shown) [Compound 45, 2-(1-{[2-oxo-2-(piperidin-1-yl)ethyl]amino}butyl) pyridine-4-carboxylic acid]
11 | 250 to 2500 nM | 250 to 2500 nM |  |  | COc1ccc(CCCN(CC(=O)N2CCCCC2)Cc2cc(C(=O)O)ccn2)cc1 [Compound 46, 2-({[3-(4-methoxyphenyl)propyl] [2-oxo-2-(piperidin-1-yl)ethyl]amino}methyl) pyridine-4-carboxylic acid]
12 | > 2500 nM |  | > 2500 nM | 250 to 2500 nM | O=C(O)c1ccnc(CN2CCn3ccnc3C2)c1 [Compound 52, 2-{5H,6H,7H,8H-imidazo[1,2-a]pyrazin-7-ylmethyl}pyridine-4-carboxylic acid]
13 | > 2500 nM |  |  | 250 to 2500 nM | CN(C)CC1CCN(Cc2cc(C(=O)O)ccn2)Cc2nccn21 (stereo not shown) [Compound 54, 2-({5-[(dimethylamino)methyl]-5H,6H,7H,8H,9H-imidazo[1,2-a][1,4]diazepin-8-yl}methyl)pyridine-4-carboxylic acid]
14 | 250 to 2500 nM | 250 to 2500 nM |  | 250 to 2500 nM | CC(C)C[C@@H]1[C@@H](O)CC(C)N1Cc1cc(C(=O)O)ccn1 (stereo partly drawn) [Compound 59, 2-{[(2R,3S)-3-hydroxy-5-methyl-2-(2-methylpropyl)pyrrolidin-1-yl]methyl}pyridine-4-carboxylic acid]
15 | > 2500 nM |  | > 2500 nM | < 250 nM | CC(C)C[C@H](NCc1cc(C(=O)O)ccn1)C1CCCO1 (stereo partly drawn) [Compound 60, 2-({[(1S)-3-methyl-1-(oxolan-2-yl)butyl]amino}methyl) pyridine-4-carboxylic acid]
16 | 250 to 2500 nM | > 2500 nM |  | > 2500 nM | O=C(O)c1ccnc(CN2CCCCC2CO)c1 (stereo not shown) [Compound 66, 2-{[2-(hydroxymethyl)piperidin-1-yl]methyl} pyridine-4-carboxylic acid]
17 | < 250 nM |  | > 2500 nM |  | O=C(O)c1ccnc(CNCc2cncc3ccccc23)c1 [Compound 85, 2-{[(isoquinolin-4-ylmethyl)amino]methyl}pyridine-4-carboxylic acid]
18 | 250 to 2500 nM | < 250 nM |  | < 250 nM | O=C(O)c1ccnc(CNCc2ccc3ncccc3c2)c1 [Compound 87, 2-{[(quinolin-6-ylmethyl)amino]methyl}pyridine-4-carboxylic acid]
19 | < 250 nM | < 250 nM |  |  | O=C(O)c1ccnc(CNC2CCc3c(CCc4ccccc4)ccnc32)c1 (stereo not shown) [Compound 96, 2-({[4-(2-phenylethyl)-5H,6H,7H-cyclopenta[b]pyridin-7-yl]amino}methyl)pyri-dine-4-carboxylic acid]
20 | < 250 nM | < 250 nM |  | < 250 nM | CCc1ccnc2c1CCC2NCc1cc(C(=O)O)ccn1 (stereo not shown) [Compound 97, 2-[({4-ethyl-5H,6H,7H-cyclopenta[b]pyridin-7-yl}amino)methyl]pyri-dine-4-carboxylic acid]
21 | 250 to 2500 nM | 250 to 2500 nM |  | 250 to 2500 nM | CC1(C)Cc2cccnc2C1NCc1cc(C(=O)O)ccn1 (stereo not shown) [Compound 102, 2-[({6,6-dimethyl-5H,6H,7H-cyclopenta[b]pyridin-7-yl}amino)methyl]pyri-dine-4-carboxylic acid]
22 | < 250 nM |  | > 2500 nM | < 250 nM | CCN1CCC[C@H](CNCc2cc(C(=O)O)ccn2)C1=O [Compound 107, 2-[({[(3R)-1-ethyl-2-oxopiperidin-3-yl]methyl}amino)methyl]pyridine-4-carboxylic acid]
